In publication PMC8985094, “Chemical constituents from Carica papaya Linn. leaves as potential cytotoxic, EGFR^wt and aromatase (CYP19A) inhibitors; a study supported by molecular docking” (RSC Advances, 2022):
Like-named read-outs stand apart in the source and are kept apart here.

Assays:
MCF-7 cell line = experiment: MTT cytotoxicity assay in breast cancer cell line (MCF-7); assay type: cell-based; conditions: Homo sapiens, read-out: IC50 on MCF-7 cell lines
Description: The cytotoxic effect of the isolated compounds from C. papaya on MCF-7 cells line was evaluated using MTT assay which measures metabolic activity as an indicator of cellular viability and proliferation.
Briefly, breast cancer cell line (MCF-7) were obtained from American Type Culture Collection and cultured in DMEM medium (Invitrogen/Life Technologies) supplemented with 10% FBS (Hyclone, USA). Insulin (10 μg mL^−1, Sigma-Aldrich, USA) and 1% penicillin–streptomycin. the cells were seeded in 96-well plates (VWR, Switzerland) at cell density 1.2–1.8 × 10^4 cells per well. […] After treatments, the medium was removed from all wells of the plate and 20 μL of the MTT reagent (Sigma-Aldrich, USA) (0.5 mg mL^−1) in PBS was added and incubated for 3.5 h at 37 °C. The solution was removed and 50 μL of DMSO was added, incubated for 5 min and the absorbance was measured at 570 nm.
(§1) Results are expressed as mean ± standard deviation (SD) based on triplicate experiments. The IC50 values of the tested compounds were determined using curve fitting in the R programming language and associated packages including Magrittr,[45] drc[46] and ggplot2.[47] Graphs and figures were generated using R console and PyMOL (PyMOL Molecular Graphics System, Schrödinger).

aromatase (CYP19A) = target: T1, aromatase (CYP19A) (Homo sapiens, UniProt P11511); experiment: Aromatase (CYP19A) inhibitor screening kit (fluorometric); assay type: biochemical
T1 construct: purchased Bio Vision
T1 sequence (P11511 1-503): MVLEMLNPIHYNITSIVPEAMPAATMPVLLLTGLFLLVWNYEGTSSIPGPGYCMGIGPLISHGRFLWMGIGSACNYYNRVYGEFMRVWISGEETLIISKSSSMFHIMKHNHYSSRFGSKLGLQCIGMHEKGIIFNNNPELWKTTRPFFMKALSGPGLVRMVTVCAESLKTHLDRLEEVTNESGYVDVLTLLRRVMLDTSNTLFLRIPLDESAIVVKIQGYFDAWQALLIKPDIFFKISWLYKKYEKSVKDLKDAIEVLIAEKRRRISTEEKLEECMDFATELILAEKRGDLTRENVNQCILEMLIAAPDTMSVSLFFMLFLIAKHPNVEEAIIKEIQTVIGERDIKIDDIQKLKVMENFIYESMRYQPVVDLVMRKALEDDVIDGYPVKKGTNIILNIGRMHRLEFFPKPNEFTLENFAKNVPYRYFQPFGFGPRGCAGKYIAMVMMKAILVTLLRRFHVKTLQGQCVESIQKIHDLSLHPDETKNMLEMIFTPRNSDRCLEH
Description: Breast cancer is mostly reliant on estrogen or progesterone, especially in postmenopausal females. […] Aromatase is the key enzyme that acts on androgen precursors for the synthesis of estrogen. Aromatase inhibitors are used to either block the production of estrogen or block the action of estrogen on its receptors and for treatment of estrogen dependant breast cancer.[32,33]
The compounds were dissolved in DMSO in concentrations ranging from 10 to 10^4 nM. The recombinant human aromatase stock was prepared according to the protocol and the samples were added and the plate was incubated for 10 min at 37 °C to allow tested compounds to interact with the aromatase.
as §1

EGFR^wt kinase = EGFR^wt kinase (Homo sapiens, UniProt P00533); experiment: EGFR^wt kinase inhibition assay (BPS Kinase Assay Kit, Kinase-Glo)
Chain of EGFR^wt kinase (P00533 25-1210): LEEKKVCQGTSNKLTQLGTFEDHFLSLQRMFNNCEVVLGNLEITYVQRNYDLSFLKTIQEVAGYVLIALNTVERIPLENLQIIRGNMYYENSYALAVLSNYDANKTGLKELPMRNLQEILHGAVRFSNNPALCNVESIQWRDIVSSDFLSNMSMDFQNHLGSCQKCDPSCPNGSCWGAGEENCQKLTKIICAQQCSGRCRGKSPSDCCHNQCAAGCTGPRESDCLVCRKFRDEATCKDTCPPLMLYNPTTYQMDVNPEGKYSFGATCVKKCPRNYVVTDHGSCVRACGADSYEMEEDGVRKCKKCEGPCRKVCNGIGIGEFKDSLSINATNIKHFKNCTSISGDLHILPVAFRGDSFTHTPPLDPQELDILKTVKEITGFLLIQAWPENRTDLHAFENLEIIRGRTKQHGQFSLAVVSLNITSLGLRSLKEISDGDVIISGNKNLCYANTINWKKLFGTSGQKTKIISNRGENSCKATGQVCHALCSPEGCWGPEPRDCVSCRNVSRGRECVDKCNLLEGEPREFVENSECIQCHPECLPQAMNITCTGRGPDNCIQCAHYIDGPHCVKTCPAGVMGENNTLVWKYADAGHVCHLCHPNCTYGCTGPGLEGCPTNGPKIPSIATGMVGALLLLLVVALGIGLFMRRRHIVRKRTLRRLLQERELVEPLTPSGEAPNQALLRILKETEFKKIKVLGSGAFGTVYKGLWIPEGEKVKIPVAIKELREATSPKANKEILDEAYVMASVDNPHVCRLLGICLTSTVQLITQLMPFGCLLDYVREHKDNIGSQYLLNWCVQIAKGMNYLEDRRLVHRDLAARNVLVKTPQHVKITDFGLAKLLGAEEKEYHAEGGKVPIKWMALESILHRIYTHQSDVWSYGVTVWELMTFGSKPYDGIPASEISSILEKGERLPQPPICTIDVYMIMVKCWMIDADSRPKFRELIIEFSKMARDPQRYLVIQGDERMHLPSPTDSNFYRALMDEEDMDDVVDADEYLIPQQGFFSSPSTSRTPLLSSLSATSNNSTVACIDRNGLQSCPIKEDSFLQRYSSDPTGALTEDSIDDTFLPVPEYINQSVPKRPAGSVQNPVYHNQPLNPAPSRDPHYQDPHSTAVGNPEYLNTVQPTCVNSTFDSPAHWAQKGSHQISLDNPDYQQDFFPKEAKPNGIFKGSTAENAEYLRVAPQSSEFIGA
Description: Then, the reaction was stopped by the addition of a detecting reagent (Kinase-Glo Max reagent), followed by incubation at room temperature for another 15 min. Finally, luminescence was measured using the microplate Robonik P2000 ELISA Reader.

[1] = MCF7, MTT assay, 24 h treatment, mean ± SD
[2] = in vitro enzymatic inhibition, recombinant human aromatase, mean ± SD, read-out: IC50 Aromatase

Compound | IC50 (aromatase (CYP19A); [2]) [nM] | IC50 (EGFR^wt kinase) [nM] | IC50 (MCF-7 cell line; [1]) [µM] | IC50 (MCF-7 cell line; MCF7, 24 h) [µM] | IC50 (aromatase (CYP19A)) [nM]
COC(=O)c1cc(O)c(O)c(O)c1 [Compound 2, methyl gallate] | 94.1 ± 5.51 | 37.3 ± 1.9 | 1.11 ± 0.06 | – | –
COc1cc(-c2oc3cc(O)cc(O)c3c(=O)c2OC2OC(CO)C(O)C(O)C2O)ccc1O [Compound 9, isorhamnetin 3-O-β-D-glucopyranoside] | 436 ± 25.6 | 100 ± 5.1 | 9.51 ± 0.54 | – | –
C[C@@H]1O[C@@H](OC[C@H]2O[C@@H](Oc3c(-c4ccc(O)c(O)c4)oc4cc(O)cc(O)c4c3=O)[C@H](O)[C@@H](O)[C@@H]2O)[C@H](O)[C@H](O)[C@H]1O [Compound 4, quercetin-3-O-rutinoside] | 148 ± 8.64 | 44.5 ± 2.3 | 25.6 ± 1.46 | – | –
C[C@@H]1N[C@@H]2CCCCCCCC(=O)O[C@H]3CC[C@@H](CCCCCCCC(=O)O[C@H]1CC2)N[C@H]3C [Compound 1, carpaine] | – | 47.6 ± 2.4 | – | 13.7 ± 0.78 | 108 ± 6.32

Further molecules by falling IC50 (aromatase (CYP19A); [2]), results first:

IC50 (aromatase (CYP19A); [2]) [nM] | IC50 (EGFR^wt kinase) [nM] | Compound | IC50 (MCF-7 cell line; [1]) [µM] | IC50 (MCF-7 cell line; MCF7, 24 h) [µM] | IC50 (aromatase (CYP19A)) [nM]
354 ± 20.7 | 83.4 ± 4.2 | O=c1c(O[C@@H]2O[C@H](CO)[C@@H](O)[C@H](O)[C@H]2O)c(-c2ccc(O)c(O)c2)oc2cc(O)cc(O)c12 [Compound 7, quercetin-3-O-β-D-glucopyranoside] | 13.1 ± 0.75 | – | –
335 ± 19.6 | 64.5 ± 3.3 | C[C@@H]1O[C@@H](O[C@H]2[C@H](Oc3c(-c4ccc(O)cc4)oc4cc(O)cc(O)c4c3=O)O[C@H](CO)[C@@H](O)[C@@H]2O)[C@H](O)[C@H](O)[C@H]1O [Compound 6, kaempferol 3-O-(2′′-O-α-L-rhamnopyranosyl)-β-D-glucopyranoside] | 3.58 ± 0.2 | – | –
208 ± 12.2 | 68.8 ± 3.5 | CC1(C)C[C@H](O)C[C@@]2(C)OC(=O)C=C12 [Compound 3, loliolide] | 28.2 ± 1.61 | – | –
92.8 ± 5.44 | 41.1 ± 2.1 | C[C@@H]1O[C@@H](OC[C@H]2O[C@@H](Oc3c(-c4ccc(O)cc4)oc4cc(O)cc(O)c4c3=O)[C@H](O)[C@@H](O)[C@@H]2O)[C@H](O)[C@H](O)[C@H]1O [Compound 8, kaempferol-3-O-rutinoside] | 4.94 ± 0.28 | – | –
77.4 ± 4.53 | 89.6 ± 4.6 | C[C@@H]1O[C@@H](OC[C@H]2O[C@@H](Oc3c(-c4ccc(O)cc4)oc4cc(O)cc(O)c4c3=O)[C@H](O[C@@H]3O[C@@H](C)[C@H](O)[C@@H](O)[C@H]3O)[C@@H](O)[C@@H]2O)[C@H](O)[C@H](O)[C@H]1O [Compound 5, kaempferol 3-O-(2′′,6′′-di-α-O-rhamnopyranosyl)-β-glucopyranoside] | 2.47 ± 0.14 | – | –
